Test results reported in patent publication US20100317671A1, “XANTHINE-BASED CYCLIC GMP-ENHANCING RHO-KINASE INHIBITOR INHIBITS PHYSIOLOGICAL ACTIVITIES OF LUNG EPITHELIAL CELL LINE” (KAOHSIUNG MEDICAL UNIVERSITY, priority 2008, published 2010).

Tests used:
[1] = system: inflammatory cells, vascular and bronchial wall; assay: Histological analyses of lung, OVA-exposed mice; format: in vivo
Description: Histological analyses show the typical pathologic features of asthma in the OVA-exposed mice. Numerous inflammatory cells including eosinophils are infiltrated around the peri-vascular and peri-bronchial region, compared to control mice. […] After OVA challenge, marked increases in PA wall thickness % are found, compared to controls P<0.01).
OVA-sensitization increases the vascular and bronchial wall thickness, however, treatment with long-term KMUP-1 nebulization prevents these changes. […] MMP-9-immunostaining in peri-bronchial region and the reduced MMP-9-positive cells in bronchiole co-indicate the reduction of migration of infiltrated inflammatory cells.

sGCα1 = assay: Western blotting of lung tissue, OVA-sensitized and -challenged mice; format: in vivo; details: nebulization, 28-day experiment
eNOS [2] = assay: Immunostaining of lung sections, OVA mice; format: in vivo
Description: OVA decreases vascular eNOS-immunostaining in lung sections, but KMUP-1 prevents this decrease quantitatively.

VCAM-1 = assay: Western blotting of lung tissue, OVA-sensitized and -challenged mice; format: in vivo
Description: (§1) Inhaled KMUP-1 can be absorbed into airway and blood flow to increase eNOS and down-regulate Rho-kinase expression by a cGMP-dependent pathway, protecting OVA-sensitized and challenged ICAM-1/VCAM-1 expression-associated cellular adhesion and migration activity of neutrophils.

ICAM-1 = assay: as above; format: in vivo
Description: as §1

HMGB1 = HMGB1 expression, bleomycin mice; format: in vivo; details: lung inflammatory stage
Description: (§2) At day 28, it is observed that expression of eNOS is decreased, the expressions of TGF-β, Smad 3 and HMGB1 are increased and there is significant collagen accumulation in the tissue sections.
(§3) (1) The mice lung is immersed in the tissue lysis buffer and homogenized by an ultrasound sonicator on ice.
(§4) (2) The lysate is centrifuged at 13,000 g under 4° C. for 30 mins. The supernatant is collected and the protein concentration measurement adopts the“Bio-Rad DC protein assay”. After diluting the protein as specific concentrations, the sample buffer being one fourth of the sample volume is added thereinto for heating at 100° C. for 5 mins, and the sample is loaded into each wells of SDS-PAGE gel in turn. The running buffer is added into the electrophoresis tank for electrophoresis at 100 V, the voltage is adjusted as 200 V when the protein runs to the lower gel, and the electrophoresis is stopped when the SDS-PAGE dye enters the SDS-PAGE.
(3) The PVDF membrane is rinsed ith transfer buffer for use, and the protein on the SDS-PAGE is transferred to the PVDF membrane. The SDS-PAGE layer covering on the PVDF membrane is placed in a protein transfer tank immersed with the transfer buffer with the current set at 100V. After 80 mins, the transfer is completed and then the PVDF membrane is taken out. […]

Smad 3 = assay: Smad3 expression by western blotting, bleomycin mice; format: in vivo; details: lung fibrotic stage
Description: as §2
(§5) The TGF-β (FIG. 12), CTGF (FIG. 13) and Smad3/p-Smad3 (FIG. 14) protein expressions in the lung tissue are analyzed by western blotting.
as §3, §4
(§6) (3) The PVDF membrane is rinsed ith transfer buffer for use, and the protein on the SDS-PAGE is transferred to the PVDF membrane. The SDS-PAGE layer covering on the PVDF membrane is placed in a protein transfer tank immersed with the transfer buffer with the current set at 100V. […]

eNOS [3] = assay: eNOS expression by western blotting, bleomycin mice; format: in vivo; details: lung fibrotic stage
Description: as §2
The eNOS (FIG. 15), p-eNOS (FIG. 16) and iNOS (FIG. 17) protein expressions in the lung tissue are analyzed by western blotting. […] The KMUPs administration effectively increases the eNOS expression.
as §3, §4
(3) The PVDF membrane is rinsed ith transfer buffer for use, and the protein on the SDS-PAGE is transferred to the PVDF membrane. […]

MMP-2 = assay: Western blotting of lung tissue, bleomycin mice; format: in vivo; details: increased by bleomycin; p<0.01
Description: (§7) The lung tissue is analyzed by western blotting, and the MMP-2 and MMP-9 protein expressions are shown in both of the FIGS. 9 and 10. In the lung tissue, the MMP-2 expression is more significant than MMP-9. KMUP-1 and KMUP-5 may mitigate the expressions of MMP-2 and MMP-9 increased by administrating the bleomycin (p<0.01).
as §3, §4
(§8) (3) The PVDF membrane is rinsed ith transfer buffer for use, and the protein on the SDS-PAGE is transferred to the PVDF membrane. The SDS-PAGE layer covering on the PVDF membrane is placed in a protein transfer tank immersed with the transfer buffer with the current set at 100V. After 80 mins, the transfer is completed and then the PVDF membrane is taken out.
(§9) (4) after cutting the band having an appropriate molecular weight on the PVDF membrane, an appropriate amount of the blocking buffer is added to for blocking under room temperature to remove the non-specific binding. Then, evenly covering the diluted primary antibody on the PVDF membrane to react under room temperature for 2 hrs, and the excessive antibodies are removed by T-TBS. Further, evenly covering the diluted secondary antibody to react under room temperature for 1 hr and finally washing the excessive antibodies with T-TBS. The enhanced chemiluminescence (ECL) agent is added for reacting for 1-90 secs. After exposing to a x-ray film, the reaction is completed.

MMP-9 [4] = assay: Western blotting of lung tissue, bleomycin mice; format: in vivo; details: increased by bleomycin; p<0.01
Description: as §7, §3, §4, §8, §9

NOx = NOx levels in BALF of OVA-sensitized and -challenged mice (Griess reagent); format: in vivo; details: 24 hrs after last OVA challenge; basal 65.4, OVA 162.8 μM
PKG = assay: Western blotting of lung tissue, OVA-sensitized and -challenged mice; format: in vivo; details: nebulization, 28-day experiment
MMP-9 [5] = assay: Short-term nebulization without OVA sensitization, lung tissue; format: in vivo, mice; details: 1.0~2.5 mM, 30 mins nebulization, no OVA
Description: (§10) Short-term KMUP-1 (5 mM, 30 min) nebulization and pretreatment with L-NAME (12 mM, […]) are accomplished using a previously described method. Aerosols were generated by ultrasonic nebulizer from day 21 to 27. Mice were sacrificed on day 28. Three different experiments were performed on cohorts of 7-14 mice per experimental condition.
(§11) Please refer to FIGS. 22(B) and 23(B), the changes of eNOS and MMP-9 expression by KMUP-1 (2.5 mM, 30 mins) are reversed by L-NAME-pretreatment (12 mM, 30 mins).

eNOS [6] = assay: as above; format: in vivo, mice; details: 1.0~2.5 mM, 30 mins nebulization, no OVA
Description: as §10, §11

TGF-β = TGF-β expression by western blotting, bleomycin mice; format: in vivo; details: lung fibrotic stage
Description: as §2, §5, §3, §4, §6

MMP-9 [7] = assay: OVA-induced MMP-9 expression in lung tissue, asthma mice; format: in vivo, BALB/c mice; details: nebulization, 28-day experiment; western blotting and zymography
Description: The male BALB/c mice (20-23 g) are injected (i.p.) with OVA (5 mM, 30 mins), sensitized with OVA on day 1 and day 8 via i.p injection and activated by 2 mg aluminum hydroxide to which 2 μg OVA is absorbed. […] The asthmatic animals are divided into 5 groups, wherein the control group is only administered with saline spray and the remaining experimental groups are firstly administered with 1% OVA spray and then administered with the sprays of the related complex salts respectively as shown in Table 4. The inhibition of the expression of OVA-induced MMP-9 in lung tissue of BALB/c mice is measured.

[8] = Monocrotaline (MCT)-induced pulmonary arterial hypertension, PABP; format: in vivo, male Wistar rats; details: MCT-treated rats
Description: The rats administered MCT (60 mg/kg) are caused pulmonary artery hypertension on day 21 after the intraperitoneal injection. The KMUP-1HCl salt (2.5 mg/kg), Simvastatin (2.5 mg/kg), KMUP-1-nicotinic acid complex (2.5 mg/kg), KMUP-1-citric acid complex (2.5 mg/kg), KMUP-1-Simvastatinic Acid complex (2.5 mg/kg) and KMUP-1-γ-polyglutamic acid complex (2.5 mg/kg) orally administered, or the KMUP-1-PGI2 complex (0.1 mM) inhaled every day may inhibit the pulmonary arterial blood pressure (PABP) in MCT-treated male Wistar rats.

SMILES | Inflammatory cells in the peri-vascular and peri-bronchiolar regions ([1]; OVA-exposed mice) | Vascular and bronchial wall thickness increased by OVA-sensitization ([1]; long-term nebulization) | sGCα1 expression reduced by OVA sensitization (sGCα1) | Vascular eNOS-immunostaining decreased by OVA (eNOS [2]) | VCAM-1 expression (VCAM-1) | ICAM-1 expression (ICAM-1) | Expression of HMGB1 (HMGB1) | Expression of Smad 3 (Smad 3) | Expression of eNOS (eNOS [3]) | MMP-2 protein expression in lung tissue (western blotting) (MMP-2) | MMP-9 protein expression in lung tissue (western blotting) (MMP-9 [4]) | Levels of NOx (nitrate+nitrite) in BALF (NOx) [µM] | PKG expression reduced by OVA sensitization (PKG) | MMP-9 expression in lung tissues (MMP-9 [5]) | eNOS expression in lung tissues (eNOS [6]) | Expression of TGF-β (TGF-β) | MMP-9 expression increased by OVA sensitization (MMP-9 [7]) | Pulmonary arterial blood pressure (PABP), in words ([8]; 2.5 mg/kg orally every day) | PABP ([8]; 2.5 mg/kg/day p.o.) [mmHg]
Cn1c(=O)c2c(ncn2CCN2CCN(c3ccccc3Cl)CC2)n(C)c1=O [KMUP-1, 7-[2-[4-(2-chlorobenzene)piperazinyl]ethyl]-1,3-dimethylxanthine] | marked reductions | prevents | prevented | prevents | suppressing | suppressing | efficiently decrease | inhibit | increase | mitigate | mitigate | 86.3 ± 17.3 | prevented | decreased | dose-dependently increased | inhibit | significantly reduced | – | –
CCC(C)(C)C(=O)O[C@H]1C[C@@H](C)C=C2C=C[C@H](C)[C@H](CC[C@@H](O)C[C@@H](O)CC(=O)O)[C@H]21.Cn1c(=O)c2c(ncn2CCN2CCN(c3ccccc3Cl)CC2)n(C)c1=O [KMUP-5] | – | – | – | – | – | – | efficiently decrease | inhibit | increase | mitigate | mitigate | – | – | – | – | inhibit | – | inhibit | 12 ± 1.3
